Here are results for nine compounds from patent publication US20240174637A1, “DEGRADERS OF GRK2 AND USES THEREOF” (Sonata Therapeutics, Inc., priority 2021, published 2024).

Structures can show the parent of a compound that is named as a salt.

The target in experiment [1] is T1, GRK2 (Homo sapiens, UniProt P25098).
T1 sequence (P25098 1-689): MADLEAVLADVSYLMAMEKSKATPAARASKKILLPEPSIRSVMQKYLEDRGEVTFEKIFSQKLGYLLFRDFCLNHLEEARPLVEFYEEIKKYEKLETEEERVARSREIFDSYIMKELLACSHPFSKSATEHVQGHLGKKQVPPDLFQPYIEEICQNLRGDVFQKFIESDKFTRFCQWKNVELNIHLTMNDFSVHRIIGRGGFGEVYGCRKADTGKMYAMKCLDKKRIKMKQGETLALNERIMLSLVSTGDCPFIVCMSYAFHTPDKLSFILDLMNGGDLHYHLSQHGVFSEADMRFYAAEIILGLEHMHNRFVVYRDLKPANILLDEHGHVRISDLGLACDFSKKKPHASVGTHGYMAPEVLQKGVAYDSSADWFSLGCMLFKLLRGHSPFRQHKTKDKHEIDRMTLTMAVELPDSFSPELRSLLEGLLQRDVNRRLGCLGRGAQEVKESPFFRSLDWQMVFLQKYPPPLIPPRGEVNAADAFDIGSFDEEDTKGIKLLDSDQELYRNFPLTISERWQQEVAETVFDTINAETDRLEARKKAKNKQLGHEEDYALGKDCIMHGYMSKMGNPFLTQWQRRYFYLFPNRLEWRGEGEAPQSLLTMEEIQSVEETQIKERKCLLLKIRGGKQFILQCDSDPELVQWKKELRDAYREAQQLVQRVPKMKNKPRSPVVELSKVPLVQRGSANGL
Description: GRK2 Degradation Assay and Western Blot in PAXF1657 cells. Format: cell-based. Details: endogenous in cells; host or cells: PAXF1657. The following applies: for inhibition at 0.3 µM: Conc 0.3 uM; for inhibition at 0.3 µM / inhibition at 1 µM / inhibition at 3 µM: read-out: Degradation Assay - 3 point: Degradation (%); for inhibition at 1 µM: Conc 1 uM; for inhibition at 3 µM: Conc 3 uM; for DC50: PAXF1657, 24 h, read-out: Degradation Assay - Full Dose Response: IC50 (uM) [cell line: PAXF1657, time point: 24 h]. An outline of the steps:
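PAXF1657 cells grown to 70% confluency, then treated with compounds at 0–10 μM for 6 to 24 h at 37 °C. Lysates in PBS with 1% NP40 run on SDS-PAGE. GRK2 protein detected by western blot with β-actin as loading reference, using ECL chemiluminescence.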

The subject of another experiment is PAXF1657 KO Clone #4. The experiment in a line: 7-day cellular proliferation assay (CellTiter-Glo), PAXF1657 KO Clone #4. The format is cell-based. The following applies: proliferation, read-out: GeoMean IC50 (uM) PAXF1657 KO Clone #4. An outline of the steps: (§1)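 PAXF1657 isogenic lines (GRK2-overexpressing vs empty vector; CRISPR GRK2 knockout vs non-targeting control clones) seeded 500 cells/well in RPMI1640/10% FBS and treated next day with 10-point dilutions, 30 μM-0.0002 μM final, 0.3% DMSO. Media with compound refreshed after 3 days; viability read by CellTiter-Glo luminescence at day 7.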

The subject of another experiment is PAXF1657 EV. The experiment in a line: 7-day cellular proliferation assay (CellTiter-Glo), PAXF1657 EV. The following applies: proliferation, read-out: GeoMean IC50 (UM) PAXF1657 EV. Format: cell-based. An outline of the steps: as §1
The target of experiment [2] is T1, GRK2. Description: GRK2 Inhibition Assay (TR-FRET, Example 1). Format: biochemical. The following applies: Table 4; Example 1 assay; read-out: Enzymatic GRK2 IC50: Av IC50 GRK2. An outline of the steps:
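GRK2 (1 nM) pre-incubated 30 min RT with compounds in HEPES/MgCl2/DTT/Tween-20/EGTA buffer, then reacted 90 min RT with 7 μM ATP and 50 nM ULight-TopoIIα substrate. Stopped with EDTA plus Eu anti-TopoIIα antibody; TR-FRET read after 60 min.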

Turning to `C[C@@H](NC(=O)c1cccc(NCc2nnc(-c3ccncn3)n2C)c1)c1cccc(OCCCN2CCN(c3ccc4c(c3)CN(C3CCC(=O)NC3=O)C4=O)CC2)c1` (stereo partly drawn) [Compound D123, N-((1R)-1-(3-(3-(4-(2-(2,6-dioxopiperidin-3-yl)-1-oxoisoindolin-5-yl)piperazin-1-yl)propoxy)phenyl)ethyl)-3-((4-methyl-5-(pyrimidin-4-yl)-4H-1,2,4-triazol-3-yl)methylamino)benzamide hydrochloride], on GRK2 [1], the inhibition at 0.3 µM stood at 81.6%, the inhibition at 1 µM turned out to be 85.2%, the inhibition at 3 µM came to 84% and the DC50 is 0.03 µM. For the same compound, the concentration for half-maximal inhibition (IC50) in the experiment on PAXF1657 KO Clone #4 is over 30 µM. Further, the concentration for half-maximal inhibition (IC50) with PAXF1657 EV is under 0.458 nM. On GRK2 [2], the half-maximal inhibitory concentration (IC50) stood at 6.56 nM.

Regarding `C[C@@H](NC(=O)c1cccc(NCc2nnc(-c3ccncn3)n2C)c1)c1ccc(OCCCCCCOCCOCCOCCCCCC(=O)Nc2cccc3c2CN(C2CCC(=O)NC2=O)C3=O)cc1` (stereo partly drawn) [Compound D147, N-((1R)-1-(4-(6-(2-(2-(6-(2-(2,6-dioxopiperidin-3-yl)-1-oxoisoindolin-4-ylamino)-6-oxohexyloxy)ethoxy)ethoxy)hexyloxy)phenyl)ethyl)-3-((4-methyl-5-(pyrimidin-4-yl)-4H-1,2,4-triazol-3-yl)methylamino)benzamide], on GRK2 [1], the inhibition at 0.3 µM worked out at 73.8%, the inhibition at 1 µM is 81.6% and the inhibition at 3 µM turned out to be 83.1%. In the experiment on PAXF1657 KO Clone #4, the IC50 was over 30 µM. For the same compound, the IC50 with PAXF1657 EV was found to be 110 nM. Further, the IC50 on GRK2 [2] is 10.1 nM.

On to `C[C@@H](NC(=O)c1cccc(NCc2nnc(-c3ccncn3)n2C)c1)c1ccc(OCCCCCCOCCOCCOCCCC(=O)N2CCN(c3cc4c(cc3F)C(=O)N(C3CCC(=O)NC3=O)C4=O)CC2)cc1` (stereo partly drawn) [Compound D125, N-((1R)-1-(4-(6-(2-(2-(4-(4-(2-(2,6-dioxopiperidin-3-yl)-6-fluoro-1,3-dioxoisoindolin-5-yl)piperazin-1-yl)-4-oxobutoxy)ethoxy)ethoxy)hexyloxy)phenyl)ethyl)-3-((4-methyl-5-(pyrimidin-4-yl)-4H-1,2,4-triazol-3-yl)methylamino)benzamide], for which, on GRK2 [1], the inhibition at 0.3 µM worked out at 71.9%. Besides, the inhibition at 1 µM on GRK2 [1] is 82.5%. In addition, the inhibition at 3 µM on GRK2 [1] was 76.4%. The results for the concentration for half-maximal inhibition (IC50) in the experiment with PAXF1657 KO Clone #4, in the experiment with PAXF1657 EV and on GRK2 [2] were 26.6 µM, 110 nM and 1.13 nM, respectively.

In the case of `C[C@@H](NC(=O)c1cccc(NCc2nnc(-c3ccncn3)n2C)c1)c1cccc(OCCCCCCOCCOCCOCCCCCC(=O)Nc2cccc3c2CN(C2CCC(=O)N(C)C2=O)C3=O)c1` (stereo partly shown) [Compound D190], the inhibition at 0.3 µM on GRK2 [1] was -22%. Moreover, the inhibition at 1 µM at GRK2 [1] is 51%. Further, on GRK2 [1], the inhibition at 3 µM amounted to 53%. For the same compound, the IC50 in the experiment with PAXF1657 KO Clone #4 came out at 26.8 µM; in the experiment on PAXF1657 EV, 1740 nM; on GRK2 [2], 12.7 nM.

Consider `C[C@@H](NC(=O)c1cccc(NCc2nnc(-c3ccncn3)n2C)c1)c1ccc(OCCCCCCOCCOCCOCCCC(=O)N2CCN(c3ccc4c(c3)CN(C3CCC(=O)NC3=O)C4=O)CC2)cc1` (stereo partly drawn) [Compound D124, N-((1R)-1-(4-(6-(2-(2-(4-(4-(2-(2,6-dioxopiperidin-3-yl)-1-oxoisoindolin-5-yl)piperazin-1-yl)-4-oxobutoxy)ethoxy)ethoxy)hexyloxy)phenyl)ethyl)-3-((4-methyl-5-(pyrimidin-4-yl)-4H-1,2,4-triazol-3-yl)methylamino)benzamide], for which, on GRK2 [1], the inhibition at 0.3 µM came to 80.5%, the inhibition at 1 µM came to 90.7%, the inhibition at 3 µM was determined as 89.3% and the DC50 stood at 0.1 µM. Besides, the IC50 in the experiment on PAXF1657 KO Clone #4 was over 30 µM. Further, the IC50 in the experiment with PAXF1657 EV worked out at 90 nM. Also, the IC50 on GRK2 [2] amounted to 5.4 nM.

For the compound `Cc1ncsc1-c1ccc(CNC(=O)[C@@H]2C[C@@H](O)CN2C(=O)[C@@H](NC(=O)CCCOCCOCCOCCCCCCCCOc2ccc([C@@H](C)NC(=O)c3cccc(NCc4nnc(-c5ccncn5)n4C)c3)cc2)C(C)(C)C)cc1` [Compound D148], on GRK2 [1], the inhibition at 0.3 µM was determined as 46.7%, the inhibition at 1 µM was determined as 21.2%, the inhibition at 3 µM stood at 0.218% and the DC50 was found to be 2.57 µM. For the same compound, the concentration for half-maximal inhibition (IC50) in the experiment on PAXF1657 KO Clone #4 came out at 8.31 µM. For the same compound, the half-inhibitory concentration (IC50) in the experiment on PAXF1657 EV is 100 nM. Further, the concentration for half-maximal inhibition (IC50) on GRK2 [2] was 14.1 nM.

For `C[C@@H](NC(=O)c1cccc(NCc2nnc(-c3ccncn3)n2C)c1)c1cccc(OCCCCCCOCCOCCOCCC(=O)N2CCN(c3ccc4c(c3)CN(C3CCC(=O)NC3=O)C4=O)CC2)c1` (stereo partly drawn) [Compound D131, N-((1R)-1-(3-(6-(2-(2-(3-(4-(2-(2,6-dioxopiperidin-3-yl)-1-oxoisoindolin-5-yl)piperazin-1-yl)-3-oxopropoxy)ethoxy)ethoxy)hexyloxy)phenyl)ethyl)-3-((4-methyl-5-(pyrimidin-4-yl)-4H-1,2,4-triazol-3-yl)methylamino)benzamide], on GRK2 [1], the inhibition at 0.3 µM was found to be 17.5%, the inhibition at 1 µM turned out to be 68.7%, the inhibition at 3 µM worked out at 89.2% and the DC50 was 0.24 µM. In addition, in the experiment with PAXF1657 KO Clone #4, the IC50 is over 30 µM. Besides, in the experiment with PAXF1657 EV, the IC50 turned out to be 220 nM. At GRK2 [2], the 50% inhibitory concentration (IC50) is 26.6 nM.

For the compound `C[C@@H](NC(=O)c1cccc(NCc2nnc(-c3ccncn3)n2C)c1)c1cccc(OCCCCCOCCCOCC(=O)Nc2cccc3c2CN(C2CCC(=O)NC2=O)C3=O)c1` (stereo partly drawn) [Compound D183, N-((1R)-1-(3-((5-(3-(2-((2-(2,6-dioxopiperidin-3-yl)-1-oxoisoindolin-4-yl)amino)-2-oxoethoxy)propoxy)pentyl)oxy)phenyl)ethyl)-3-(((4-methyl-5-(pyrimidin-4-yl)-4H-1,2,4-triazol-3-yl)methyl)amino)benzamide], on GRK2 [1], the inhibition at 0.3 µM is 82%. Besides, the inhibition at 1 µM at GRK2 [1] was determined as 86.5%. Besides, at GRK2 [1], the inhibition at 3 µM came out at 94.6%. Besides, the IC50 in the experiment on PAXF1657 KO Clone #4 is over 30 µM; in the experiment on PAXF1657 EV, 110 nM; at GRK2 [2] it was 16.7 nM.

Regarding `C[C@@H](NC(=O)c1cccc(NCc2nnc(-c3ccncn3)n2C)c1)c1cccc(OCCCCCOCCCOCC(=O)N2CCN(c3cc4c(cc3F)C(=O)N(C3CCC(=O)NC3=O)C4=O)CC2)c1` (stereo partly drawn) [Compound D180, N-((1R)-1-(3-((5-(3-(2-(4-(2-(2,6-dioxopiperidin-3-yl)-6-fluoro-1,3-dioxoisoindolin-5-yl)piperazin-1-yl)-2-oxoethoxy)propoxy)pentyl)oxy)phenyl)ethyl)-3-(((4-methyl-5-(pyrimidin-4-yl)-4H-1,2,4-triazol-3-yl)methyl)amino)benzamide], on GRK2 [1], the inhibition at 0.3 µM was determined as 43%, the inhibition at 1 µM was determined as 74% and the inhibition at 3 µM amounted to 85%. The concentration for half-maximal inhibition (IC50) in the experiment with PAXF1657 KO Clone #4 is over 30 µM. Also, the half-maximal inhibitory concentration (IC50) in the experiment with PAXF1657 EV worked out at 820 nM. Besides, the IC50 at GRK2 [2] was 7.31 nM.
